# Laboratory results from patent publication US12421238B2, “Selective dihydropyrrolopyrimidine JAK2 inhibitors” (CHENGDU JINRUI FOUNDATION BIOTECH CO., LTD., priority 2019, dated 2025).
# System: HEL92.1.7
# Experiment: HEL92.1.7 cell proliferation experiment (Cell Titer-Glo)
# Type: cell-based
# Conditions: Homo sapiens, HEL 92.1.7; HEL92.1.7 cells, 72 hours
row,Compound,IC50
1,CCN1CCN(Cc2ccc(Nc3ncc4c(n3)N(c3cccc(S(=O)(=O)NC(C)(C)C)c3)CC4)cc2)CC1 [Compound I-8],0.33 µM
2,CN1CCN(Cc2ccc(Nc3ncc4c(n3)N(c3cccc(S(=O)(=O)NC(C)(C)C)c3)CC4)cc2)CC1 [Compound I-12],0.22 µM
3,CC(C)(C)NS(=O)(=O)c1cccc(N2CCc3cnc(Nc4ccc(CN5CCCC5)cc4)nc32)c1 [Compound I-22],0.24 µM
4,CN1CCC(c2ccc(Nc3ncc4c(n3)N(c3cccc(S(=O)(=O)NC(C)(C)C)c3)CC4)cc2)CC1 [Compound I-21],0.22 µM
5,CC(C)(C)NS(=O)(=O)c1cccc(N2CCc3cnc(Nc4ccc(CC5CCOCC5)cc4)nc32)c1 [Compound I-10],0.2 µM
6,CC(C)(C)NS(=O)(=O)c1cccc(N2CCc3cnc(Nc4ccc(N5CCOCC5)cc4)nc32)c1 [Compound I-17],0.25 µM

# System: TF-1
# Experiment: TF-1 cell proliferation experiment (CellTiter Glo)
# Type: cell-based
# Conditions: Homo sapiens; TF-1 cells, 72 hours; read-out: TF-1 (μM), proliferation inhibition
row,Compound,IC50
1,CCN1CCN(Cc2ccc(Nc3ncc4c(n3)N(c3cccc(S(=O)(=O)NC(C)(C)C)c3)CC4)cc2)CC1 [Compound I-8],0.23 µM
2,CN1CCN(Cc2ccc(Nc3ncc4c(n3)N(c3cccc(S(=O)(=O)NC(C)(C)C)c3)CC4)cc2)CC1 [Compound I-12],0.2 µM
3,CC(C)(C)NS(=O)(=O)c1cccc(N2CCc3cnc(Nc4ccc(CN5CCCC5)cc4)nc32)c1 [Compound I-22],0.22 µM
4,CN1CCC(c2ccc(Nc3ncc4c(n3)N(c3cccc(S(=O)(=O)NC(C)(C)C)c3)CC4)cc2)CC1 [Compound I-21],0.15 µM
5,CC(C)(C)NS(=O)(=O)c1cccc(N2CCc3cnc(Nc4ccc(CC5CCOCC5)cc4)nc32)c1 [Compound I-10],0.19 µM
6,CC(C)(C)NS(=O)(=O)c1cccc(N2CCc3cnc(Nc4ccc(N5CCOCC5)cc4)nc32)c1 [Compound I-17],0.14 µM

# Target: JAK1 (Homo sapiens, UniProt P23458)
# Sequence (P23458 whole entry): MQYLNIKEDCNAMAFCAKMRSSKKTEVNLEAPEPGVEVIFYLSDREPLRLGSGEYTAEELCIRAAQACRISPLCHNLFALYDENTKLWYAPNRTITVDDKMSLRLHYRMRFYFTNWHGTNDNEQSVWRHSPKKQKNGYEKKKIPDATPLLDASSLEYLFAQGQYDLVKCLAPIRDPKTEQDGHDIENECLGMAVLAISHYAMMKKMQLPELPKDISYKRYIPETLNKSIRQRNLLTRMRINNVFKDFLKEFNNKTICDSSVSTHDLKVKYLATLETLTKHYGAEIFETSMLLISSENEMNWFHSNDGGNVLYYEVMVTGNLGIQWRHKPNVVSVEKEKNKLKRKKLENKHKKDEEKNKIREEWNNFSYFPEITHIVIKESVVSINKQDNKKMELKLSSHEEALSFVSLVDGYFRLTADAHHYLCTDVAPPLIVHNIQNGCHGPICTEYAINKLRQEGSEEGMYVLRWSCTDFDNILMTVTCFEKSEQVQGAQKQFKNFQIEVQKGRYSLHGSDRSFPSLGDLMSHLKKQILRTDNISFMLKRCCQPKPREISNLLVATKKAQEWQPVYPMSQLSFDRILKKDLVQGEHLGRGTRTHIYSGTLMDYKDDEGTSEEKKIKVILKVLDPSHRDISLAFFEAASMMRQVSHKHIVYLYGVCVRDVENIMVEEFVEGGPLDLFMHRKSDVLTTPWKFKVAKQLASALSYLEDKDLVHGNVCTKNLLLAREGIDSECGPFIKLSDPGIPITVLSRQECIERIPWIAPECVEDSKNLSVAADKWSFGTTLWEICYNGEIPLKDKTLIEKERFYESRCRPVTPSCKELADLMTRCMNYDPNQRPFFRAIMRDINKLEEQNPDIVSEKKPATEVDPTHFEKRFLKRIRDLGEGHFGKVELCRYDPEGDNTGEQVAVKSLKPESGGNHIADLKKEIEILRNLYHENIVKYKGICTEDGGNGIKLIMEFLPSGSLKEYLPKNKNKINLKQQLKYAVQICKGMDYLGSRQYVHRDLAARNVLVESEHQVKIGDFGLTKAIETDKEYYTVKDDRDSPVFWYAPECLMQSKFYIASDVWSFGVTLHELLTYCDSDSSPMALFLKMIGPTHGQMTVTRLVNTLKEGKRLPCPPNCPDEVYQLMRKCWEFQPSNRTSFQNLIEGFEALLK
# Experiment: Kinase activity test on JAK1 (Caliper EZ Reader conversion rate)
# Conditions: not given
row,IC50,Compound
1,151 nM,CCN1CCN(Cc2ccc(Nc3ncc4c(n3)N(c3cccc(S(=O)(=O)NC(C)(C)C)c3)CC4)cc2)CC1 [Compound I-8]
2,98 nM,CN1CCN(Cc2ccc(Nc3ncc4c(n3)N(c3cccc(S(=O)(=O)NC(C)(C)C)c3)CC4)cc2)CC1 [Compound I-12]
3,105 nM,CC(C)(C)NS(=O)(=O)c1cccc(N2CCc3cnc(Nc4ccc(CN5CCCC5)cc4)nc32)c1 [Compound I-22]
4,101 nM,CN1CCC(c2ccc(Nc3ncc4c(n3)N(c3cccc(S(=O)(=O)NC(C)(C)C)c3)CC4)cc2)CC1 [Compound I-21]
5,100 nM,CC(C)(C)NS(=O)(=O)c1cccc(N2CCc3cnc(Nc4ccc(CC5CCOCC5)cc4)nc32)c1 [Compound I-10]
6,221 nM,CC(C)(C)NS(=O)(=O)c1cccc(N2CCc3cnc(Nc4ccc(N5CCOCC5)cc4)nc32)c1 [Compound I-17]

# Target: JAK2 (Homo sapiens, UniProt O60674)
# Sequence (O60674 whole entry): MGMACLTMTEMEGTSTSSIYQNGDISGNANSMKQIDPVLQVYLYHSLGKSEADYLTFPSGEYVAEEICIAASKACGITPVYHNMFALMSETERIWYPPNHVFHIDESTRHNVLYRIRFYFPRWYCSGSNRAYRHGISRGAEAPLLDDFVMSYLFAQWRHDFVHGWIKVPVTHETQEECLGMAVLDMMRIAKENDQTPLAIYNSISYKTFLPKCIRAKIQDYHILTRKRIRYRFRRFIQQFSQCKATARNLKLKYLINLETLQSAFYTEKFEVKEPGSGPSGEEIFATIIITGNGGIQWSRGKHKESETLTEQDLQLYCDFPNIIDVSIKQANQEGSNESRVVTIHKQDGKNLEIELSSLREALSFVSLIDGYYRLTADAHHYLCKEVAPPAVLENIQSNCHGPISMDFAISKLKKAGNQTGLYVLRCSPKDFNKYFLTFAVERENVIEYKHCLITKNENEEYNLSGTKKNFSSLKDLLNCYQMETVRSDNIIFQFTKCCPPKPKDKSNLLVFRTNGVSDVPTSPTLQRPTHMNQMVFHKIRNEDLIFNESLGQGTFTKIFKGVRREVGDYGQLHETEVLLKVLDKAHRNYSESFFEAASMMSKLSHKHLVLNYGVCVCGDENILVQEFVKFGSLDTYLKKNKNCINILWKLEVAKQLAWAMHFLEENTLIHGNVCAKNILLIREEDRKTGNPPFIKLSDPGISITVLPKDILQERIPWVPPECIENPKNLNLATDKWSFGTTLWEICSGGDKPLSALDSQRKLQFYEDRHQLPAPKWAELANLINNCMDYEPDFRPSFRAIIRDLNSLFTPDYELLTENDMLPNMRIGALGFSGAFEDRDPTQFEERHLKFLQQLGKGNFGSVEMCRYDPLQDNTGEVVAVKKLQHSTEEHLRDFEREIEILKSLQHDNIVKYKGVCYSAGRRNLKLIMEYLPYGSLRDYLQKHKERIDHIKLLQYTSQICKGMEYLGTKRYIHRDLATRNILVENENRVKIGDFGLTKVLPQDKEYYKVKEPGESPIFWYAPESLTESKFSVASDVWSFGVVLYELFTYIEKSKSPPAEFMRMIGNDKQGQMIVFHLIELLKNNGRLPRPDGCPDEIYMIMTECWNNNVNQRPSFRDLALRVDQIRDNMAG
# Experiment: Kinase activity test on JAK2 (Caliper EZ Reader conversion rate)
# Conditions: not given
row,IC50,Compound
1,1.2 nM,CCN1CCN(Cc2ccc(Nc3ncc4c(n3)N(c3cccc(S(=O)(=O)NC(C)(C)C)c3)CC4)cc2)CC1 [Compound I-8]
2,0.7 nM,CN1CCN(Cc2ccc(Nc3ncc4c(n3)N(c3cccc(S(=O)(=O)NC(C)(C)C)c3)CC4)cc2)CC1 [Compound I-12]
3,0.6 nM,CC(C)(C)NS(=O)(=O)c1cccc(N2CCc3cnc(Nc4ccc(CN5CCCC5)cc4)nc32)c1 [Compound I-22]
4,0.8 nM,CN1CCC(c2ccc(Nc3ncc4c(n3)N(c3cccc(S(=O)(=O)NC(C)(C)C)c3)CC4)cc2)CC1 [Compound I-21]
5,0.5 nM,CC(C)(C)NS(=O)(=O)c1cccc(N2CCc3cnc(Nc4ccc(CC5CCOCC5)cc4)nc32)c1 [Compound I-10]
6,2.2 nM,CC(C)(C)NS(=O)(=O)c1cccc(N2CCc3cnc(Nc4ccc(N5CCOCC5)cc4)nc32)c1 [Compound I-17]

# Same assay, conditions: ratio of IC50 values, selectivity for JAK2 over JAK1
row,JAK1/JAK2,Compound
1,126,CCN1CCN(Cc2ccc(Nc3ncc4c(n3)N(c3cccc(S(=O)(=O)NC(C)(C)C)c3)CC4)cc2)CC1 [Compound I-8]
2,140,CN1CCN(Cc2ccc(Nc3ncc4c(n3)N(c3cccc(S(=O)(=O)NC(C)(C)C)c3)CC4)cc2)CC1 [Compound I-12]
3,175,CC(C)(C)NS(=O)(=O)c1cccc(N2CCc3cnc(Nc4ccc(CN5CCCC5)cc4)nc32)c1 [Compound I-22]
4,126,CN1CCC(c2ccc(Nc3ncc4c(n3)N(c3cccc(S(=O)(=O)NC(C)(C)C)c3)CC4)cc2)CC1 [Compound I-21]
5,200,CC(C)(C)NS(=O)(=O)c1cccc(N2CCc3cnc(Nc4ccc(CC5CCOCC5)cc4)nc32)c1 [Compound I-10]
6,100,CC(C)(C)NS(=O)(=O)c1cccc(N2CCc3cnc(Nc4ccc(N5CCOCC5)cc4)nc32)c1 [Compound I-17]

# Same assay, conditions: ratio of IC50 values, selectivity for JAK2 over JAK3
row,JAK3/JAK2,Compound
1,833,CCN1CCN(Cc2ccc(Nc3ncc4c(n3)N(c3cccc(S(=O)(=O)NC(C)(C)C)c3)CC4)cc2)CC1 [Compound I-8]
2,1256,CN1CCN(Cc2ccc(Nc3ncc4c(n3)N(c3cccc(S(=O)(=O)NC(C)(C)C)c3)CC4)cc2)CC1 [Compound I-12]
3,1455,CC(C)(C)NS(=O)(=O)c1cccc(N2CCc3cnc(Nc4ccc(CN5CCCC5)cc4)nc32)c1 [Compound I-22]
4,1235,CN1CCC(c2ccc(Nc3ncc4c(n3)N(c3cccc(S(=O)(=O)NC(C)(C)C)c3)CC4)cc2)CC1 [Compound I-21]
5,1974,CC(C)(C)NS(=O)(=O)c1cccc(N2CCc3cnc(Nc4ccc(CC5CCOCC5)cc4)nc32)c1 [Compound I-10]
6,709,CC(C)(C)NS(=O)(=O)c1cccc(N2CCc3cnc(Nc4ccc(N5CCOCC5)cc4)nc32)c1 [Compound I-17]

# Target: T1, JAK3 (Homo sapiens, UniProt P52333)
# T1 sequence (P52333 1-1124): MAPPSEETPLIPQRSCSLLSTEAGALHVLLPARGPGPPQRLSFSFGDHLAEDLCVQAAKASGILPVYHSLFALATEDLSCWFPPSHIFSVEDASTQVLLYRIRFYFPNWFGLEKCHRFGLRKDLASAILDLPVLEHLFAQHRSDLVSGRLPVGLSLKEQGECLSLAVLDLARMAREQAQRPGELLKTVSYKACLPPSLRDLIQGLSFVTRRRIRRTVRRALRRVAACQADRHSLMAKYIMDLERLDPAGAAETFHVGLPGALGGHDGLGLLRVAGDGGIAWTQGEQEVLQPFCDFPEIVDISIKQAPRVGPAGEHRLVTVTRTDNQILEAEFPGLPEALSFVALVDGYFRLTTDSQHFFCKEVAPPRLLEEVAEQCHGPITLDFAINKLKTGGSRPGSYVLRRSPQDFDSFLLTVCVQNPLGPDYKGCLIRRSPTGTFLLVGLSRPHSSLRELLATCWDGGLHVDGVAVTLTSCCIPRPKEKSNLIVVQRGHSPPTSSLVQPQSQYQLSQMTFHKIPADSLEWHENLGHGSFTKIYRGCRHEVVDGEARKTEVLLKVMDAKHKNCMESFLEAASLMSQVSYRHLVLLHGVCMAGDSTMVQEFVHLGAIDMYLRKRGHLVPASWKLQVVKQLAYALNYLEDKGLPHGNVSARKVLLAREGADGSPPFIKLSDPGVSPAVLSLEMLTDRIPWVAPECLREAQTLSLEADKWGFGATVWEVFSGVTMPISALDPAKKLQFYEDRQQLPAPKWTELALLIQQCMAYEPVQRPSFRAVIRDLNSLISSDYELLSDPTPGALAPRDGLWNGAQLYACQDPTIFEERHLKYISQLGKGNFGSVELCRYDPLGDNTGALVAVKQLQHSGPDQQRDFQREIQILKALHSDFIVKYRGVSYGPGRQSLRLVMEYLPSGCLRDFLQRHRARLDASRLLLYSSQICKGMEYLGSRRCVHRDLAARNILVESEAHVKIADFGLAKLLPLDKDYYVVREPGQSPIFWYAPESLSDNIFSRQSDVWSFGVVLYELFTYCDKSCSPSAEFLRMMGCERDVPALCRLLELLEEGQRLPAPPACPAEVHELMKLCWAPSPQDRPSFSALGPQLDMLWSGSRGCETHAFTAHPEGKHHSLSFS
# Experiment: Kinase activity test on JAK3 (Caliper EZ Reader conversion rate)
# Conditions: not given
row,IC50,Compound
1,1000 nM,CCN1CCN(Cc2ccc(Nc3ncc4c(n3)N(c3cccc(S(=O)(=O)NC(C)(C)C)c3)CC4)cc2)CC1 [Compound I-8]
2,879 nM,CN1CCN(Cc2ccc(Nc3ncc4c(n3)N(c3cccc(S(=O)(=O)NC(C)(C)C)c3)CC4)cc2)CC1 [Compound I-12]
3,873 nM,CC(C)(C)NS(=O)(=O)c1cccc(N2CCc3cnc(Nc4ccc(CN5CCCC5)cc4)nc32)c1 [Compound I-22]
4,988 nM,CN1CCC(c2ccc(Nc3ncc4c(n3)N(c3cccc(S(=O)(=O)NC(C)(C)C)c3)CC4)cc2)CC1 [Compound I-21]
5,987 nM,CC(C)(C)NS(=O)(=O)c1cccc(N2CCc3cnc(Nc4ccc(CC5CCOCC5)cc4)nc32)c1 [Compound I-10]
6,1560 nM,CC(C)(C)NS(=O)(=O)c1cccc(N2CCc3cnc(Nc4ccc(N5CCOCC5)cc4)nc32)c1 [Compound I-17]
